Results taken from patent US20230270804A1, “ANTI-HYPERCHOLESTEROLEMIA COMPOSITION AND A METHOD OF MANUFACTURING THE SAME” (NBI BIOSCIENCES PRIVATE LIMITED, priority 2020, published 2023).

What was measured:
HMG CoA Reductase [1] = target: T1, HMG CoA Reductase (Rattus norvegicus, UniProt P51639); test: Prophylactic study: HMG CoA reductase activity in liver homogenate; type: in vivo, Wistar strain albino rats; settings: HFD+normal diet, after sacrifice
T1 construct: The tissue homogenate was prepared by homogenizing 1 gm of tissue (liver) with 10 ml of saline arsenate solution; from tissue; host or cells: rat liver homogenate
T1 sequence (P51639 1-887): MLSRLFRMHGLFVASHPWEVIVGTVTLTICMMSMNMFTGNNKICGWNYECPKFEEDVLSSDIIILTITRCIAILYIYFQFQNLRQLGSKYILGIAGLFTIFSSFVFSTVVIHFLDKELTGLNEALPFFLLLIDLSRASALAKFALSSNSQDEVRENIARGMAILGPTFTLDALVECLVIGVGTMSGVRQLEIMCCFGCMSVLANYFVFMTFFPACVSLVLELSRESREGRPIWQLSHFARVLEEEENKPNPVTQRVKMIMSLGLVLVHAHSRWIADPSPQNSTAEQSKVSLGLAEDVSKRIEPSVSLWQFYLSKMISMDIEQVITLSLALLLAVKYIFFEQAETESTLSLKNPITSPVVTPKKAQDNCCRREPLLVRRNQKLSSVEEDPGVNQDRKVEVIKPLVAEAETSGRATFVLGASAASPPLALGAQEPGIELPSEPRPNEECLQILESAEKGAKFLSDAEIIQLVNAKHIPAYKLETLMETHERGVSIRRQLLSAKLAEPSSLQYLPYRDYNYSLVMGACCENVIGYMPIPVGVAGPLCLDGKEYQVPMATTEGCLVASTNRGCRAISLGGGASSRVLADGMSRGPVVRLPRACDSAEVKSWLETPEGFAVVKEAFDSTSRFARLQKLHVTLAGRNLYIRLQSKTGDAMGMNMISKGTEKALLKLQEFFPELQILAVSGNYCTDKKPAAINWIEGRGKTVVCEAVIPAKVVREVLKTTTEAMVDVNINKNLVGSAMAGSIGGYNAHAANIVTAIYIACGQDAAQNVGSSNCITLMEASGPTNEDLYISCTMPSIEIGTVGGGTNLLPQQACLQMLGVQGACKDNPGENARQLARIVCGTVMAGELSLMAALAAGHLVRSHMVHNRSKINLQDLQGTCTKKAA
Description: (§1) 1.5-2 ml blood sample was taken from retino-orbital chamber in vials for biochemical estimations at every 15 days. Investigations performed included detailed Total Cholesterol—TC (mg/dl), Triglyceride—TG (mg/dl), High Density Lipoprotein—HDL-C (mg/dl), Low Density Lipoprotein—LDL-C (mg/dl), Very Low-Density Lipoprotein—VLDL (mg/dl), WBC (10^3/u1), RBC (10^6/u1), Hb (g/dl), PCV (%), Reticulocyte (%), Platelet count 10^5/mm^3, Clotting time (Sec), Neutrophils, Lymphocyte, Monocyte and Eosinophil. The estimations were done with Ecoline kits from Erba Mannheim, ERBA diagnostics Mannheml, Germany using Semi Autoanalyzer RX50 of MicroLabs Instruments and COUNCELL21 of Tulip Diagnostics Pvt. Ltd. Lipid peroxidation (Plasma & Liver), HMG Co-Reductase, Creatine phosphokinase (CPK), Lactate dehydrogenase (LDH), SGOT and SGPT were estimated at the end of both the studies using the kits.
(§2) The tissue homogenate was prepared by homogenizing 1 gm of tissue (liver) with 10 ml of saline arsenate solution. Further equal volumes of the fresh 10% tissue homogenate and diluted perchloric acid were mixed and allowed to stand for 5 minute and centrifuge (2000 rpm, 10 minutes). […] The readings were taken after 10 minutes at 540 nm vs. a similarly treated saline/arsenate blank.

HMG CoA Reductase [2] = target: T1, HMG CoA Reductase; test: Therapeutic study: HMG CoA reductase activity in liver homogenate; type: in vivo, Wistar strain albino rats; settings: after necropsy
Description: as §1, §2

CC(C)c1c(C(=O)Nc2ccccc2)c(-c2ccccc2)c(-c2ccc(F)cc2)n1CC[C@@H](O)C[C@@H](O)CC(=O)O [Statin, Atorvastatin]
HMG Co Reductase (HMG CoA Reductase [1]): 163.92 ± 4.02 U/mg | HMG Co Reductase (HMG CoA Reductase [2]; HFD Continued): 224.83 ± 18.48 U/mg | HMG Co Reductase (HMG CoA Reductase [2]; HFD Discontinued): 170.03 ± 2.71 U/mg
